29 compounds from ChEMBL document CHEMBL4842368, “Berotralstat (BCX7353): Structure-Guided Design of a Potent, Selective, and Oral Plasma Kallikrein Inhibitor to Prevent Attacks of Hereditary Angioedema (HAE)” (J Med Chem, 2021) can be followed below.

For series [1], the target named is T1, Plasma kallikrein (Homo sapiens, UniProt P03952). Nature of the series: Inhibition of purified human plasma kallikrein using H-D-Pro-Phe-Arg-pNA.2HCl as substrate measured after 3 mins by microplate reader analysis.
T1 sequence (P03952 20-390 limits assumed): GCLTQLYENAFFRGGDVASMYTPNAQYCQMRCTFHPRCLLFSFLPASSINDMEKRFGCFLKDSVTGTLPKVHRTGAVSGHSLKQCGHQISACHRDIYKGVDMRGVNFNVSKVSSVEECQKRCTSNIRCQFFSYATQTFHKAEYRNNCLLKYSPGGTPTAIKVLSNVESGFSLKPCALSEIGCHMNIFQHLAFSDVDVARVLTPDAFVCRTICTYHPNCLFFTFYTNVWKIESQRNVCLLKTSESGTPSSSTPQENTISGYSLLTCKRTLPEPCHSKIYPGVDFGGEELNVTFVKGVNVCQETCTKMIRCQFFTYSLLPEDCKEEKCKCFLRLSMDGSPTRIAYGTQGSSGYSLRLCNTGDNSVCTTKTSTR
T1 sequence (P03952 391-638 limits assumed): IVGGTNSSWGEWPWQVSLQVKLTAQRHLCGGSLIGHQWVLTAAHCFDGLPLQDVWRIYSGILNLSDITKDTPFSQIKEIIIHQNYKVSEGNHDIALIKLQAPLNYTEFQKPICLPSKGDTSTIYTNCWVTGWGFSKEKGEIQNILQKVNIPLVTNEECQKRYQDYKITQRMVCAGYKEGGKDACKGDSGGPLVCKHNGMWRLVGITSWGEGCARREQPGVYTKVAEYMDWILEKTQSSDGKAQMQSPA
The target of series [2] is T1, Plasma kallikrein. Nature of the series: Inhibition of endogenous human plasma kallikrein using Z-Phe-Arg-AMC.HCl as substrate measured after 5 mins by microplate reader analysis.
Series [3] can be described thus: AUC in rat at 5 mg/kg, po after 12 hrs. The following applies: in vivo. The series is classed as ADME, organism-based. Also on record: route oral, time 12 hrs, dose 5 mg/kg.
The nature of series [4]: Cmax in rat at 5 mg/kg, po. The format is ADME, organism-based. On the set-up: route oral, dose 5 mg/kg. The following applies: in vivo.
Series [5] is filed under the species Homo sapiens. As to the kind of experiment: Selectivity index, ratio of IC50 for human tissue kallikrein to IC50 for human plasma kallikrein.
For series [6], the species on record is Homo sapiens. Nature of the series: Selectivity index, ratio of IC50 for human plasmin to IC50 for human plasma kallikrein.
The species entered for series [7] is Homo sapiens. Nature of the series: Selectivity index, ratio of IC50 for human FXa to IC50 for human plasma kallikrein.
Series [8] is filed under the species Homo sapiens. Nature of the series: Selectivity index, ratio of IC50 for human trypsin to IC50 for human plasma kallikrein.
Series [9] is filed under the species Homo sapiens. As to the kind of experiment: Selectivity index, ratio of IC50 for human FX2a to IC50 for human plasma kallikrein.
Series [10] is filed under the species Homo sapiens. Nature of the series: Selectivity index, ratio of IC50 for human Cls to IC50 for human plasma kallikrein.
Series [11] is filed under the species Homo sapiens. As to the kind of experiment: Selectivity index, ratio of IC50 for human thrombin to IC50 for human plasma kallikrein.
The species named for series [12] is Homo sapiens. As to the kind of experiment: Selectivity index, ratio of IC50 for human tPA to IC50 for human plasma kallikrein.
The species named for series [13] is Homo sapiens. Nature of the series: Selectivity index, ratio of IC50 for human APC to IC50 for human plasma kallikrein.
The nature of series [14]: AUC in rat at 5 mg/kg, po after 24 hrs. The series is classed as ADME, organism-based. Also on record: route oral, dose 5 mg/kg, time 24 hrs. The following applies: in vivo.
A short description of series [15]: Plasma concentration in rat at 5 mg/kg, po after 24 hrs. The format is ADME, organism-based.
A short description of series [16]: Plasma concentration in rat at 5 mg/kg, po after 12 hrs. The format is ADME, organism-based.
Series [17] deals with T1, Plasma kallikrein. As to the kind of experiment: Inhibition of purified human plasma kallikrein using H-D-Pro-Phe-Arg-pNA.2HCl as substrate at 5 uM measured after 3 mins by microplate reader analysis relative to control.
Series [18] in a line: AUC in rat at 10 mg/kg, po after 24 hrs. The series is classed as ADME, organism-based. Also on record: route oral, time 24 hrs, dose 10 mg/kg. The following applies: in vivo.
Series [19] in a line: Plasma concentration in rat at 10 mg/kg, po after 24 hrs. The format is ADME, organism-based.
Series [20] can be described thus: Cmax in rat at 10 mg/kg, po. The format is ADME, organism-based. Also on record: route oral, dose 10 mg/kg. The following applies: in vivo.

pIC50: −log10 of the molar value.

A word on the pIC50: it is the negative decadic logarithm of the IC50, by convention in mol/L. A low value points to a high IC50. Take `NCc1cccc(-n2nc(C(F)(F)F)cc2C(=O)Nc2ccc(-c3ccc(C(N)=O)cc3)cc2F)c1`: at Plasma kallikrein [1], the negative logarithm of the IC50 (pIC50) was 6.40.
As usually defined, the AUC is concentration integrated over time. Low readings indicate less exposure, high ones more exposure. The term Cmax denotes the maximum level reached in the sampled fluid or tissue. As to `NCc1cccc(-n2nc(C(F)(F)F)cc2C(=O)Nc2cc(C(NCC3CC3)c3cccnc3)ccc2F)c1` (stereo not drawn), the pIC50 at Plasma kallikrein [2] and on Plasma kallikrein [1] was 8.00 each time. Also, the AUC at 12 h in series [3] amounted to 128 ng·h/mL. In series [4], the maximum concentration (Cmax) turned out to be 58 ng/mL.
Regarding `NCc1cccc(-n2nc(C(F)(F)F)cc2C(=O)Nc2cccc(C(OCC3CC3)c3ccccc3)c2F)c1` (stereo not drawn), the pIC50 is less than 6.00 against Plasma kallikrein [2] and 7.43 at Plasma kallikrein [1].
Consider `CCOC(c1ccccc1)c1ccc(F)c(NC(=O)c2cc(C(F)(F)F)nn2-c2cccc(CN)c2)c1` (stereo not drawn), for which the results for the negative-log IC50 (pIC50) against Plasma kallikrein [2] and on Plasma kallikrein [1] were 5.89 and 6.87, respectively.
`NCc1cccc(-n2nc(C(F)(F)F)cc2C(=O)Nc2ccc(C(OCC3CC3)c3ccccc3)cc2F)c1` (stereo not drawn) had a pIC50 against Plasma kallikrein [1] of 6.19.
With `N#Cc1cccc([C@@H](NCC2CC2)c2ccc(F)c(NC(=O)c3cc(C(F)(F)F)nn3-c3cccc(CN)c3)c2)c1` (stereo in doubt), the Ratio IC50 in the series listed under Homo sapiens [5] was greater than 34100; in the series filed under Homo sapiens [6], 4510; in the series listed under Homo sapiens [7], greater than 56800; in the series filed under Homo sapiens [8], 12500; in the series listed under Homo sapiens [9] it was greater than 56800; in the series filed under Homo sapiens [10], greater than 56800. For the same compound, the Ratio IC50 in the series filed under Homo sapiens [11] was greater than 56800; in the series filed under Homo sapiens [12], greater than 56800; in the series listed under Homo sapiens [13], greater than 34100.
In turn, `CS(=O)(=O)c1cccc(-c2ccc(NC(=O)c3cc(C(F)(F)F)nn3-c3cccc(CN)c3)c(F)c2)c1` gave a pIC50 at Plasma kallikrein [1] of 5.91.
On to `NCc1cccc(-n2nc(C(F)(F)F)cc2C(=O)Nc2cccc(C(OCC3CC3)c3ccccc3)c2)c1` (stereo not drawn), for which the pIC50 is 6.52 against Plasma kallikrein [2] and 7.42 against Plasma kallikrein [1].
Regarding `NCc1cccc(-n2nc(C(F)(F)F)cc2C(=O)Nc2ccc(F)c(C(OCC3CC3)c3ccccc3)c2)c1` (stereo not drawn), the pIC50 is less than 6.00 at Plasma kallikrein [2] and 6.15 against Plasma kallikrein [1].
As for `NCc1cccc(-n2cccn2)c1`, at Plasma kallikrein [1], the negative logarithm of the IC50 (pIC50) was 2.47.
Compound `NCc1cccc(-n2nc(C(F)(F)F)cc2C(=O)Nc2ccc(C(O)c3ccccc3)cc2F)c1` (stereo not drawn) gave a negative logarithm of the IC50 (pIC50) against Plasma kallikrein [1] of 6.00.
On the same count and under the same terms, next, `NCc1cccc(-n2nc(C(F)(F)F)cc2C(=O)Nc2cc(C(O)c3ccccc3)ccc2F)c1` (stereo not drawn): 6.15.
Consider `NCc1cccc(-n2nc(C(F)(F)F)cc2C(=O)Nc2cc(F)cc(C(OCC3CC3)c3ccccc3)c2)c1` (stereo not drawn), for which the values for the pIC50 against Plasma kallikrein [2] and against Plasma kallikrein [1] were less than 6.00 and 7.00, respectively.
In turn, `NCc1cccc(-n2nc(C(F)(F)F)cc2C(=O)Nc2ccc(-c3ccccc3)cc2)c1` had a pIC50 on Plasma kallikrein [1] of 5.54.
The same measure, in the same setting: next, `NCc1cccc(-n2nc(C(F)(F)F)cc2C(=O)Nc2ccccc2F)c1`: 4.56.
On to `NCc1cccc(-n2nc(C(F)(F)F)cc2C(=O)Nc2cc(C(NCC3CC3)c3ccccn3)ccc2F)c1` (stereo not drawn), for which the results for the pIC50 against Plasma kallikrein [2] and at Plasma kallikrein [1] were 7.57 and 7.98, respectively. Besides, in series [3], the area under the curve (AUC) at 12 h was 131 ng·h/mL. The compound also came in with a Cmax in series [4] of 45 ng/mL.
For the compound `NCc1cccc(-n2nc(C(F)(F)F)cc2C(=O)Nc2cccc(C(O)c3ccccc3)c2F)c1` (stereo not drawn), on Plasma kallikrein [1], the negative-log IC50 (pIC50) was 6.83.
The same measure, in the same setting: next, `NCc1cccc(-n2nc(C(F)(F)F)cc2C(=O)O)c1`: 4.81.
In series [14], `NCc1cccc(-n2nc(C(F)(F)F)cc2C(=O)Nc2cc(C(NCC3CC3)c3ccccc3)ccc2F)c1` (stereo in doubt; 25) yielded an AUC at 24 h of 852 ng·h/mL. The same compound yielded an AUC at 12 h in series [3] of 493 ng·h/mL. The peak concentration (Cmax) in series [4] amounted to 51 ng/mL. The compound further had a concentration at 24 h in series [15] of 29 ng/mL. The concentration at 12 h in series [16] stood at 31 ng/mL.
Consider `N#Cc1ccc(C(NCC2CC2)c2ccc(F)c(NC(=O)c3cc(C(F)(F)F)nn3-c3cccc(CN)c3)c2)cc1` (stereo not drawn), for which the negative logarithm of the IC50 (pIC50) on Plasma kallikrein [2] is 7.72; against Plasma kallikrein [1], 8.14.
At Plasma kallikrein [1], `NCc1cccc(-n2ccc(C(F)(F)F)n2)c1` showed a pIC50 of 3.00.
Regarding `NCc1cccc(-n2nc(C(F)(F)F)cc2C(=O)Nc2ccc(C3CC3)cc2F)c1`, on Plasma kallikrein [1], the pIC50 was 6.24.
As to `NCc1cccc(-n2nc(C(F)(F)F)cc2C(=O)Nc2cc(C(NCC3CC3)c3ccncc3)ccc2F)c1` (stereo not drawn), the negative-log IC50 (pIC50) is 7.78 on Plasma kallikrein [2] and 8.28 against Plasma kallikrein [1]. Moreover, the AUC at 12 h in series [3] came to 73 ng·h/mL. Further, the Cmax in series [4] amounted to 22 ng/mL.
In turn, `NCc1cccc(-n2nc(C(F)(F)F)cc2C(=O)Nc2ccc(-c3ccccc3)cc2F)c1` gave a pIC50 on Plasma kallikrein [1] of 5.99.
By inhibition is commonly meant the share of the control response that was lost under treatment. In the case of `NCc1cccc(-n2nc(C(F)(F)F)cc2C(=O)Nc2ccc(N3CCCCC3)cc2F)c1`, on Plasma kallikrein [17], the inhibition came out at 7.5%.
For `COC(c1ccccc1)c1ccc(F)c(NC(=O)c2cc(C(F)(F)F)nn2-c2cccc(CN)c2)c1` (stereo not drawn), the negative-log IC50 (pIC50) on Plasma kallikrein [1] was 6.64.
In turn, `NCc1cccc(-n2nc(C(F)(F)F)cc2C(=O)Nc2ccc(-c3ccc(S(N)(=O)=O)cc3)cc2F)c1` showed a negative-log IC50 (pIC50) against Plasma kallikrein [1] of 6.40.
In series [18], `NCc1cccc(-n2nc(C(F)(F)F)cc2C(=O)Nc2cc(C(NCC3CC3)c3ccccc3)ccc2F)c1` (single isomer, unassigned; (-)) gave an AUC at 24 h of 1490 ng·h/mL. Also, in series [19], the concentration at 24 h worked out at 30 ng/mL. For the same compound, in series [20], the maximum concentration (Cmax) came to 133 ng/mL.
In the case of `NCc1cccc(-n2nc(C(F)(F)F)cc2C(=O)Nc2ccccc2)c1`, the negative-log IC50 (pIC50) against Plasma kallikrein [1] is 4.65.
